Assay results published in patent publication US10676478B2, “7-(thiazol-5-yl) pyrrolopyrimidine compound as TLR7 agonist” (CHIA TAI TIANQING PHARMACEUTICAL GROUP CO., LTD., priority 2015, dated 2020).
Read-outs that look alike come from different tables or passages of the source. Blank lines part the entries; values can stand above or below the molecule they belong to.

Experiments:
[1] = Pharmacokinetics assay in rat; type: in vivo, SD rats; parameters: Mean plasma drug concentration: unit not given here; settings: for Cmax: read-out: C0 or Cmax; for half-life: read-out: T½ (converted)
Description: Experimental Example 2: Pharmacokinetics Assay in Rat
12 male SD rats were divided into 4 groups with 3 SD rats in each group. 2 groups of animals were administered by intravenous injection (IV) 1 mg/kg of the control Toll-like receptor 7 agonist GS-9620 and Example 1 compound as 10% hydroxypropyl-β-cyclodextrin aqueous solution (concentration is 0.5 mg/mL), respectively. The other 2 groups were administered orally (PO) 5 mg/kg of GS-9620 and 3 mg/kg of Example 1 compound as 0.5% methylcellulose/0.2% Tween 80 pure water suspension (concentration is 1 mg/mL). […] Each rat with oral administration was collected for whole blood samples which were prepared into plasma 15, 30 min and 1, 2, 4, 8, 24 h continuously after administration. The plasma concentrations of GS-9620 and Example 1 compound were determined with LC-MS/MS.

[2] = target: T1, Toll-like receptor 8 (HEK-blue hTLR8 cell) (Homo sapiens, UniProt Q9NR97); assay: Toll-like receptor 8 in vitro receptor binding activity (HEK-blue hTLR8 cell, Quanti-Blue alkaline phosphatase reporter); type: cell-based; settings: 24 h incubation, read-out: TLR8 EC50
T1 construct: host or cells: HEK-blue hTLR8 cell (HEK293-derived reporter line)
T1 sequence (Q9NR97 27-1041): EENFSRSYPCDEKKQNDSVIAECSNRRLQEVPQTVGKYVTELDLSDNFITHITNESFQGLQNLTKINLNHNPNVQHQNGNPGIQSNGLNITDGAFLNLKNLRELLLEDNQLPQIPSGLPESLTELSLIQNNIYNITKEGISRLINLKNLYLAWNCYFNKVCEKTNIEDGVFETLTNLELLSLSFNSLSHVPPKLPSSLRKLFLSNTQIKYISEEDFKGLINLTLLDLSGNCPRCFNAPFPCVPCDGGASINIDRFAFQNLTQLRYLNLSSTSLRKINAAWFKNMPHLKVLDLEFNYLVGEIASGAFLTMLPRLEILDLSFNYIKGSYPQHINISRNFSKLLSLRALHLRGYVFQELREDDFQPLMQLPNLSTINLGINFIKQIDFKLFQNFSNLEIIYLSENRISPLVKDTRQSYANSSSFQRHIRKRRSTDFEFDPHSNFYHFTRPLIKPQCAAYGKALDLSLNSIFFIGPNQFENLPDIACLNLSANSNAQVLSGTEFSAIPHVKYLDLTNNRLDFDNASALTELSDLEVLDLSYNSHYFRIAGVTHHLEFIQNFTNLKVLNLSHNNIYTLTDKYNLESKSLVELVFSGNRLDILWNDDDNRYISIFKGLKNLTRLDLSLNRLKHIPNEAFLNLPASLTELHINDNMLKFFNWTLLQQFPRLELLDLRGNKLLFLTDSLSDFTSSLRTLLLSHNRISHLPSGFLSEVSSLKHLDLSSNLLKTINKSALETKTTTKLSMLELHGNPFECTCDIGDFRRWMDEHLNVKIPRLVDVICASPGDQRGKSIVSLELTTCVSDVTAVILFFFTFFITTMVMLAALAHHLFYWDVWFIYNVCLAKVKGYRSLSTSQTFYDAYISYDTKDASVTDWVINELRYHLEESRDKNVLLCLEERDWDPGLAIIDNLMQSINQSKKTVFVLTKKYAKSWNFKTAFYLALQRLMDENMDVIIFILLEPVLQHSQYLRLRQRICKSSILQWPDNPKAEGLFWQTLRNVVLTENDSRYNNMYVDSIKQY
Description: (§1) Experimental Example 1: Toll-Like Receptor 7 and Toll-Like Receptor 8 In Vitro Receptor Binding Activity
(§2) HEK-blue hTLR7 cell and HEK-blue hTLR8 cell (available from InvivoGen)
(§3) The GS-9620 and R848 used have the following structures. GS-9620 can be prepared according the process disclosed in US20100143301; R848 is purchased from ABGENT (Catalog: IMG-2208, 0.5 mg).
(§4) The compounds were gradient diluted with DMSO in 3-fold using liquid work station POD starting at a concentration of 10 mmol/L and 10 points were diluted (2nd column to 11th column, and each point was duplicated). At 12th column, 1 μL of 5 mg/mL positive compound R848 was added as positive control; and at 1 st column, 1 μL of DMSO was added as negative control. Each well contained 1 μL of DMSO.
(§5) 2. The cells in cell culture flask were collected and the cell density was diluted to 250,000 cells/mL.
(§6) 3. 200 μL (50,000 cells/well) of cell suspension was added into prepared compound plate and the final concentration of DMSO in each well was 0.5%.
(§7) 4. The culture plates containing cells and the compounds were incubated in CO2 incubator for 24 h at 37° C., 5% CO2.
(§8) 5. After 24 h incubation, 20 μL of supernatant was removed from each well of the cell culture plates to a 96-well transparent assay plate. […]
(§9) 6. After 1 h, the content of alkaline phosphatase in 20 μL of supernatant was determined using Microplate Reader at OD650. […]

[3] = target: T2, Toll-like receptor 7 (HEK-blue hTLR7 cell) (Homo sapiens, UniProt Q9NYK1); assay: Toll-like receptor 7 in vitro receptor binding activity (HEK-blue hTLR7 cell, Quanti-Blue alkaline phosphatase reporter); type: cell-based; settings: 24 h incubation, read-out: TLR7 EC50
T2 construct: host or cells: HEK-blue hTLR7 cell (HEK293-derived reporter line)
T2 sequence (Q9NYK1 27-1049): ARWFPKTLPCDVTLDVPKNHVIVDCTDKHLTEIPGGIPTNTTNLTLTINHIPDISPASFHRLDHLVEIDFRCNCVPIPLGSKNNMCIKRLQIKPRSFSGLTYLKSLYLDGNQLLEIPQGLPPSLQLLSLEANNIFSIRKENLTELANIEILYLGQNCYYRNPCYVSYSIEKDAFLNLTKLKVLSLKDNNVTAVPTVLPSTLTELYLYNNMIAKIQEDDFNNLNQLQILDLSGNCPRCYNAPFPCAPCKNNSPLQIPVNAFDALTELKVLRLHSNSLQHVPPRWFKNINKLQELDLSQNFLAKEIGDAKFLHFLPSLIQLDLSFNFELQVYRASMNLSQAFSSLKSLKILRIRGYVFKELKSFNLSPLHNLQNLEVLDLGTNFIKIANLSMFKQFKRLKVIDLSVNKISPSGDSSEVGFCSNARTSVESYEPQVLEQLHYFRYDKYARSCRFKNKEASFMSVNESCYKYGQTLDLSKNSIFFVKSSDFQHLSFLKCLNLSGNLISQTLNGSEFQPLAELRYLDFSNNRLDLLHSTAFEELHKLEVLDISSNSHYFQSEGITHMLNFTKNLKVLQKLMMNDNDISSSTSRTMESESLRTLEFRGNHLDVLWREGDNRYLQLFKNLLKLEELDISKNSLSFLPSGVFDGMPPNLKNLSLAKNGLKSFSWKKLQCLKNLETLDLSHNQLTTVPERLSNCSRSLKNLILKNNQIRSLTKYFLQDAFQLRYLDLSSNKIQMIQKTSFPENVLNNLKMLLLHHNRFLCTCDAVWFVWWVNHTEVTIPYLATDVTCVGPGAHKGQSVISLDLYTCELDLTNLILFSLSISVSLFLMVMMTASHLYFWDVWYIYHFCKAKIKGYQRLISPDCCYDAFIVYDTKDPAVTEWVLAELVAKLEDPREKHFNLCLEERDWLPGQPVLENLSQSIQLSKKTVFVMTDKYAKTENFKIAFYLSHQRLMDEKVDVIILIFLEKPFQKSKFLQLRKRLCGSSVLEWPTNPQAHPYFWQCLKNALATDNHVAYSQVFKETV
Description: as §1, §2, §3, §4, §5, §6, §7, §8, §9

[4] = male, SD, plasma, 1 mg/kg, IV 1 mpk
[5] = male, SD, plasma, 3 mg/kg, PO 3 mpk

Mean plasma drug concentration ([1]; IV 1 mpk, time 0.083 h): 170 | Mean plasma drug concentration ([1]; IV 1 mpk, time 0.25 h): 102 | Mean plasma drug concentration ([1]; IV 1 mpk, time 0.5 h): 65.4 | Mean plasma drug concentration ([1]; IV 1 mpk, time 1 h): 48.1 | Mean plasma drug concentration ([1]; IV 1 mpk, time 2 h): 21.6 | Mean plasma drug concentration ([1]; IV 1 mpk, time 4 h): 13 | Mean plasma drug concentration ([1]; IV 1 mpk, time 8 h): 4.17 | Mean plasma drug concentration ([1]; PO 5 mpk, time 0.25 h): 56.3 | Mean plasma drug concentration ([1]; PO 5 mpk, time 0.5 h): 33.2 | Mean plasma drug concentration ([1]; PO 5 mpk, time 1 h): 83.4 | Mean plasma drug concentration ([1]; PO 5 mpk, time 2 h): 136 | Mean plasma drug concentration ([1]; PO 5 mpk, time 4 h): 16.7 | Mean plasma drug concentration ([1]; PO 5 mpk, time 8 h): 9.49
Structure (SMILES): CCCCOc1nc(N)c2c(n1)N(Cc1cccc(CN3CCCC3)c1)CC(=O)N2 [GS-9620, reference compound]

Structure (SMILES): CCCCOc1nc(N)c2[nH]cc(Cc3cnc(CN4CCCC4)s3)c2n1 [Example 1, 2-butoxy-7-((2-(pyrrolidin-1-ylmethyl)thiazol-5-yl)methyl)-5H-pyrrolo[3,2-d]pyrimidin-4-amine]
Mean plasma drug concentration ([1]; IV 1 mpk, time 0.083 h): 500 | Mean plasma drug concentration ([1]; IV 1 mpk, time 0.25 h): 277 | Mean plasma drug concentration ([1]; IV 1 mpk, time 0.5 h): 197 | Mean plasma drug concentration ([1]; IV 1 mpk, time 1 h): 120 | Mean plasma drug concentration ([1]; IV 1 mpk, time 2 h): 66.1 | Mean plasma drug concentration ([1]; IV 1 mpk, time 4 h): 30.6 | Mean plasma drug concentration ([1]; IV 1 mpk, time 8 h): 13.1 | Mean plasma drug concentration ([1]; PO 3 mpk, time 0.25 h): 45.4 | Mean plasma drug concentration ([1]; PO 3 mpk, time 0.5 h): 52.0 | Mean plasma drug concentration ([1]; PO 3 mpk, time 1 h): 86.8 | Mean plasma drug concentration ([1]; PO 3 mpk, time 2 h): 113 | Mean plasma drug concentration ([1]; PO 3 mpk, time 4 h): 23.6 | Mean plasma drug concentration ([1]; PO 3 mpk, time 8 h): 5.64 | AUC(0-inf) [1, 4]: 0.573 µM·h | AUC(0-t) [1, 4]: 0.541 µM·h | clearance [1, 4]: 75.8 mL/min/kg | Cmax [1, 4]: 673 nM | half-life [1, 4]: 3.08 h | Vd ([1]; male, SD, plasma, 1 mg/kg, IV 1 mpk, read-out: Vdss): 13.5 L/kg | AUC(0-inf) [1, 5]: 0.325 µM·h | AUC(0-t) [1, 5]: 0.313 µM·h | Cmax [1, 5]: 148 nM | half-life [1, 5]: 1.54 h | EC50 [2]: 29.3 µM | EC50 [3]: 0.454 µM
